Measured values as given in US6649615B2, “Method for inhibiting fibrogenesis” (Institute National de la Sante et de la Recherche Medicale …, priority 2002, dated 2003).

Assays:
TIMP-1 mRNA = TIMP-1 mRNA expression by cultured HSC-T6 cells (Northern blot); format: cell-based, rat; conditions: mean ±SEM
Method: (§1) The inventors used an established rat HSC cell line, named HSC-T6.
TIMP-1 increases fibrosis deposition by inhibiting its degradation by matrix metalloproteinases. The inventors observed in example 1 that noradrenergic antagonism in vivo led to a drastic decrease in liver TIMP-1 mRNA expression. They have further measured the effect of norepinephrin on TIMP-1 mRNA expression by cultured HSC-T6 cells. Total RNA was purified from cells exposed for 3, 6, or 24 hours to 100 nM norepinephrin. The RNAs were analyzed by Northern blot with a probe specific for rat TIMP-1. The blots were subsequently dehybridized and rehybridized with a probe to rat glyceraldehyde 3-phosphate dehydrogenase to ensure proper loading and transfer. TIMP-1/GADPH ratios were calculated and the results are shown respective to control values without norepinephrin.
Results are expressed as TIMP-1/GAPDH ratios relative to control values (mean ±SEM)

HSC-T6 = experiment: Hepatic stellate cell proliferation assay (tetrazolium dye reduction); format: cell-based, rat; conditions: 2 days exposure
Method: FIG. 3: Effect of norepinephrin on hepatic stellate cell (HSC) proliferation. Cells were exposed to increasing concentrations of norepinephrin for 2 days. Cell number was evaluated through the measurement of the reduction of the dye 3-(4,5-dimethylthiazol-2yl)-2,5 diphenyltetrazolium.
FIG. 4: Effect of prazosin on hepatic stellate cell proliferation induced by norepinephrin Cells were exposed to increasing concentrations of prazosin, either alone (open symbols), or in the presence of 100 nM norepinephrin (closed symbols). Cell number was evaluated through the measurement of the reduction of the dye 3-(4,5-dimethylthiazol-2yl)-2,5 diphenyltetrazolium. The marginal proliferation index was calculated as: (ODexperimental sample—ODday 0)/(ODcontrol—ODday 0), where OD is the optical density measured at the end of the experiment.
as §1
Cells were exposed to increasing concentrations of norepinephrin for 2 days. In some experiments, cells were also exposed to increasing concentrations of prazosin. Cell number was evaluated through the measurement of the reduction of the dye 3-(4,5-dimethylthiazol-2yl)-2,5 diphenyltetrazolium.

Compound	TIMP-1/GAPDH ratio relative to control (TIMP-1 mRNA; TGFβ1 0,1 ng/ml, 3 h)	TIMP-1/GAPDH ratio relative to control (TIMP-1 mRNA; TGFβ1 0,1 ng/ml, 6 h)	TIMP-1/GAPDH ratio relative to control (TIMP-1 mRNA; TGFβ1 0,1 ng/ml, 24 h)	TIMP-1/GAPDH ratio relative to control (TIMP-1 mRNA; Norepinephrin 100 nM, 3 h)	TIMP-1/GAPDH ratio relative to control (TIMP-1 mRNA; Norepinephrin 100 nM, 6 h)	TIMP-1/GAPDH ratio relative to control (TIMP-1 mRNA; Norepinephrin 100 nM, 24 h)	concentration at plateau of HSC-T6 proliferation increase (HSC-T6) [nM]	EC50 (HSC-T6; Rattus norvegicus, HSC-T6, 48 h, mean of 5 independent experiments in triplicate, read-out: Half-maximal effect on HSC-T6 proliferation) [nM]
TGFβ1: transforming growth factor β1, a major agonist of liver fibrogenesis	1,56 ± 0,20	1,38 ± 0,11	1,33 ± 0,09	–	–	–	–	–
NC[C@H](O)c1ccc(O)c(O)c1 [norepinephrin]	–	–	–	1,30 ± 0,15	1,38 ± 0,13	1,15 ± 0,18	100	25
